Like-named read-outs stand apart in the source and are kept apart here.
Experiments:
in vitro [1] = assay type: in vitro ADME, human; settings: for half-life (t1/2): HLM 0.50 mg/mL, NADPH 1 mM, 1 μM compound, pH 7.4, 37° C., 60 min
5-HT2A receptor [2] = molecular target: T1, 5-HT2A receptor (Homo sapiens, UniProt P28223); assay: cell-based; assay type: cell-based; settings: beta-arrestin recruitment; for Emax: agonist, max dose, read-out: 5-HT2A Arrestin % Act @ Max Dose
In short: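 PathHunter β-arrestin recruitment (enzyme fragment complementation): 5-HT2A fused to ProLink donor in cells co-expressing β-arrestin–β-galactosidase acceptor, seeded and held at 37° C before testing. Chemiluminescent read-out; agonist % activity = (sample RLU − vehicle)/(max control ligand − vehicle) × 100.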

in vitro [3] = assay type: in vitro ADME, rat; settings: for half-life (t1/2): RLM (male Sprague-Dawley) 0.50 mg/mL, NADPH 1 mM, 1 μM compound, pH 7.4, 37° C., 60 min
Source text: RLM Stability Pooled RLM from male Sprague-Dawley rats (Xenotech R1000) were used.

in vitro [4] = assay type: in vitro ADME, mouse; settings: for half-life (t1/2): MLM (male CD-1) 0.50 mg/mL, NADPH 1 mM, 1 μM compound, pH 7.4, 37° C., 60 min
Source text: MLM Stability Pooled MLM from male CD-1 mice (BIOIVT M00501) were used.

5-HT2A receptor [5] = molecular target: T1, 5-HT2A receptor; assay: cell-based; assay type: cell-based; set-up: expressed in transfected cells; host or cells: HEK293, stably transfected; settings: for Emax: HEK293, agonist, Ca2+ flux, HEK293, max dose, read-out: 5-HT2A % Act @ Max Dose
In short: (§1)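 Receptor agonism was assessed as intracellular calcium mobilization in stably transfected cells, with CHO cells additionally carrying Gα15 for the 5-HT1A readout. Calcium was monitored with Fluo-4 Direct dye.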

5-HT2B receptor = molecular target: T2, 5-HT2B receptor (Homo sapiens, UniProt P41595); assay: cell-based; assay type: cell-based; settings: for Emax: HEK293, agonist, Ca2+ flux, HEK293, max dose, read-out: 5-HT2B % Act @ Max Dose; for selectivity for 5-HT2A over 5-HT2B: functional, compared to closest N-methyl counterparts Int8, Int11, Int17
T2 construct: expressed in transfected cells; host or cells: HEK293, stably transfected
T2 sequence (P41595 whole entry): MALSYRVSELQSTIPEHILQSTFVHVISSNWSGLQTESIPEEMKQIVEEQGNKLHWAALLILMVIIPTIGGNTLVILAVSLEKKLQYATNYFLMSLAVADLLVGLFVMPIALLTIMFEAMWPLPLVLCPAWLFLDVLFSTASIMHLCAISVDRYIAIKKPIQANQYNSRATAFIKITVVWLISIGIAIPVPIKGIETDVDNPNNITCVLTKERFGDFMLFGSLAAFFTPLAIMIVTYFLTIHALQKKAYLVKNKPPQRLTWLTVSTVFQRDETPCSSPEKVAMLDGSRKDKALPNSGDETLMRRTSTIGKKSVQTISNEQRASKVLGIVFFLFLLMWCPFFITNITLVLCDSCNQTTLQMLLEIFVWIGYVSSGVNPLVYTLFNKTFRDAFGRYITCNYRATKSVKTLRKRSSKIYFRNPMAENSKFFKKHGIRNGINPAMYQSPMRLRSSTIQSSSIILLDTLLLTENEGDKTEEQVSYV
In short: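 FLIPR Tetra fluorescence read-out of calcium flux after compound addition. Receptor-expressing stable lines were used (HEK293 for 2A/2B; CHO with Gα15 for 1A), dye-loaded with Fluo-4 Direct and 2.5 mM final probenecid, 50 min at 37 °C.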

5-HT1B receptor = molecular target: T3, 5-HT1B receptor (Homo sapiens, UniProt P28222); assay: cAMP accumulation functional assay at 5-HT1B; assay type: cell-based; settings: for Emax: agonist, cAMP accumulation, max dose, read-out: 5-HT1B % Act @ Max Dose; for selectivity for 5-HT2A over 5-HT1B: functional, compared to the N-methyl prototype LSD
T3 construct: expressed in transfected cells
T3 sequence (P28222 whole entry): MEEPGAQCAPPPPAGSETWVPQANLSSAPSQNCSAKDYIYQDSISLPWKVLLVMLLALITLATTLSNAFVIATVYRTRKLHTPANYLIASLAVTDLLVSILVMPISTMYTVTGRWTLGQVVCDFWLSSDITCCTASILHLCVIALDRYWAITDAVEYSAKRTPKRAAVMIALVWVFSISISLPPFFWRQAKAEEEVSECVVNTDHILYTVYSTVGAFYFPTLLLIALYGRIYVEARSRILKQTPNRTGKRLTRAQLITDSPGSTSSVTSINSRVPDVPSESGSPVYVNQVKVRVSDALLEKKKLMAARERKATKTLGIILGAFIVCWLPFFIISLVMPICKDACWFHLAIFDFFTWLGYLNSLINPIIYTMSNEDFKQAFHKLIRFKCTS
In short: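 Agonist activity measured as cAMP accumulation in cells stably transfected with human 5-HT1B. Cells incubated 60 min at RT, then detection reagent added for a further 60 min at RT before plate reading.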

5-HT1A receptor = molecular target: T4, 5-HT1A receptor (Homo sapiens, UniProt P08908); assay: cell-based; settings: CHO, agonist, Ca2+ flux, CHO cells with Gα15, max dose; read-out: 5-HT1A % Act @ Max Dose
T4 construct: expressed in transfected cells; host or cells: CHO cells, stably transfected
T4 sequence (P08908 1-422): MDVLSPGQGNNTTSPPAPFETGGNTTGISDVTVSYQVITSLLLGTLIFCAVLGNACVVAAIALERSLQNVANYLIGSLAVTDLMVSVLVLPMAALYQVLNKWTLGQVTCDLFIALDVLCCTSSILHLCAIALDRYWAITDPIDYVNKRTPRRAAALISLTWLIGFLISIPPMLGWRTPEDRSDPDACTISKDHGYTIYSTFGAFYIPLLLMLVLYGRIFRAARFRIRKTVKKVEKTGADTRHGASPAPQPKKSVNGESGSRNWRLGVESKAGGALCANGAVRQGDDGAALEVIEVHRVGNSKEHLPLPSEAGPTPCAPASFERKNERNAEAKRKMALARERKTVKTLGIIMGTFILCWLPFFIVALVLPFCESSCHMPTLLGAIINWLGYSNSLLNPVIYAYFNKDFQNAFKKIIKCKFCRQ
In short: as §1

T1 sequence (P28223 whole entry, the tested form may be a part): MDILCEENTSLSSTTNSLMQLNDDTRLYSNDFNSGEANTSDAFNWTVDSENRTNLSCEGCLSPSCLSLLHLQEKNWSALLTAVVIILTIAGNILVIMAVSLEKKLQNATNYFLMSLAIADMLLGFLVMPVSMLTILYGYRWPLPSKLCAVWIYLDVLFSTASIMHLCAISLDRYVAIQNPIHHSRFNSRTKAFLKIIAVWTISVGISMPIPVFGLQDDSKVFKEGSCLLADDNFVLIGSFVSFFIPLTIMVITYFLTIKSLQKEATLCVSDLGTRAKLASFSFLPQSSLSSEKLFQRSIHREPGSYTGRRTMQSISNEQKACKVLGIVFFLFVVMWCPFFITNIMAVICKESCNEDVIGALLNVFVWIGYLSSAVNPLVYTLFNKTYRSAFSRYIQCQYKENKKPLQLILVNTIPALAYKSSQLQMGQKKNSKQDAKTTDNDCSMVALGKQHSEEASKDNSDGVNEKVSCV

SMILES | stability in HLM (in vitro [1]) | half-life (t1/2) (in vitro [1]) | Emax (5-HT2A receptor [2]) | 5-HT2A arrestin agonist class (5-HT2A receptor [2]) | stability in RLM (in vitro [3]) | half-life (t1/2) (in vitro [3]) | stability in MLM (in vitro [4]) | half-life (t1/2) (in vitro [4]) | Emax (5-HT2A receptor [5]) | Emax (5-HT2B receptor) | Emax (5-HT1B receptor) | selectivity for 5-HT2A over 5-HT1B (5-HT1B receptor) | Emax (5-HT1A receptor) | selectivity for 5-HT2A over adrenergic and dopamine receptors (5-HT2A receptor [5]; versus Alpha1A, Alpha2A, D1, D2) | selectivity for 5-HT2A over 5-HT2B (5-HT2B receptor)
CCN(CC)C(=O)[C@@H]1C=C2c3cccc4[nH]cc(c34)C[C@H]2N(CCCF)C1 [Compound 2, (6aR,9R)—N,N-diethyl-7-(3-fluoropropyl)-4,6,6a,7,8,9-hexahydroindolo[4,3-fg]quinoline-9-carboxamide] | much lower stability (higher clearance) | 19.061 min | 115% | full agonists | much lower stability (higher clearance) | 11.972 min | much lower stability (higher clearance) | 2.666 min | 97.8% | 101% | 90% | greater selectivity for 5-HT2A over 5-HT1B | 92.4% | – | –
CCCN1C[C@H](C(=O)N[C@H](C)CC)C=C2c3cccc4[nH]cc(c34)C[C@H]21 [Compound 3, (6aR,9R)—N—((R)-sec-butyl)-7-propyl-4,6,6a,7,8,9-hexahydroindolo[4,3-fg]quinoline-9-carboxamide] | much lower stability (higher clearance) | 4.2 min | 110% | full agonists | much lower stability (higher clearance) | 4.4 min | much lower stability (higher clearance) | 1.6 min | 103% | 94.1% | 98.7% | greater selectivity for 5-HT2A over 5-HT1B | 108% | exceptional selectivity | more selective for 5-HT2A over 5-HT2B
CCCN1C[C@H](C(=O)N2[C@@H](C)C[C@@H]2C)C=C2c3cccc4[nH]cc(c34)C[C@H]21 [Compound 4, ((2S,4S)-2,4-dimethylazetidin-1-yl)((6aR,9R)-7-propyl-4,6,6a,7,8,9-hexahydroindolo[4,3-fg]quinolin-9-yl)methanone] | much lower stability (higher clearance) | 10.6 min | 117% | full agonists | much lower stability (higher clearance) | 12.8 min | much lower stability (higher clearance) | 0.8 min | 97.6% | 87.5% | 96% | greater selectivity for 5-HT2A over 5-HT1B | 123% | – | more selective for 5-HT2A over 5-HT2B
CCCN1C[C@H](C(=O)NC(CC)CC)C=C2c3cccc4[nH]cc(c34)C[C@H]21 [Compound 6, (6aR,9R)—N-(pentan-3-yl)-7-propyl-4,6,6a,7,8,9-hexahydroindolo[4,3-fg]quinoline-9-carboxamide] | much lower stability (higher clearance) | 1.607 min | 103% | full agonists | much lower stability (higher clearance) | 1.655 min | much lower stability (higher clearance) | 0.6 min | 94.6% | 92.9% | 94.6% | greater selectivity for 5-HT2A over 5-HT1B | 102% | – | –
